Test results reported in PubChem BioAssay (NCI).
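Briefly, cells in 96-well plates were exposed to five compound concentrations for 48 h, and endpoints were estimated by linear interpolation. At the TGI there is no net growth.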

Legend:
Test in all cases: inhibition of tumour cell growth, NCI panel, 48 h
SW-620 colon = tested on: SW-620 colon
SF-295 CNS = tested on: SF-295 CNS
SK-MEL-28 melanoma = tested on: SK-MEL-28 melanoma
MALME-3M melanoma = tested on: MALME-3M melanoma
SNB-75 CNS = tested on: SNB-75 CNS
SNB-19 CNS = tested on: SNB-19 CNS
DU-145 prostate = tested on: DU-145 prostate
OVCAR-4 ovarian = tested on: OVCAR-4 ovarian
UACC-62 melanoma = tested on: UACC-62 melanoma
UO-31 renal = tested on: UO-31 renal
M14 melanoma = tested on: M14 melanoma

| SMILES | TGI (SW-620 colon) [µM] | TGI (SF-295 CNS) [µM] | TGI (SK-MEL-28 melanoma) [µM] | TGI (MALME-3M melanoma) [µM] | TGI (SNB-75 CNS) [µM] | TGI (SNB-19 CNS) [µM] | TGI (DU-145 prostate) [µM] | TGI (OVCAR-4 ovarian) [µM] | TGI (UACC-62 melanoma) [µM] | TGI (UO-31 renal) [µM] | TGI (M14 melanoma) [µM] |
| --- | --- | --- | --- | --- | --- | --- | --- | --- | --- | --- | --- |
| CC(C)CN1CN(c2ccccc2)C2(CCN(CC(C)(c3ccc(F)cc3)C3OCCO3)CC2)C1=O (stereo not given) | 17.5 | 10.9 | 10 | 17.2 | 20 | 21.9 | 14.8 | 29.7 | 26.3 | 9.77 | 8.46 |
| NCCC1(N)CCNCC1 | > 100 | > 100 | > 100 | > 100 | > 100 | > 100 | > 100 | > 100 | > 100 | > 100 | > 100 |
| C[N+]1(C)CC=C(N2CCOCC2)CC1 | > 10 | > 10 | > 10 | > 10 | > 10 | > 10 | > 10 | > 10 | > 10 | > 10 | > 10 |
| CC1(C)CCc2c(cc3c(c2O)CCC(C)(C)O3)O1 | > 100 | > 100 | > 100 | > 100 | > 100 | > 100 | > 100 | > 100 | > 100 | > 100 | > 100 |
| Cc1c2c(n3c(nc4ccccc43)c1C#N)N(c1ccc(Cl)cc1)CC2 | > 100 | > 100 | > 100 | > 100 | > 100 | > 100 | > 100 | > 100 | > 100 | > 100 | > 100 |
| Cc1ccc(N=Nc2c(O)c3ccccc3[nH]c2=O)c(S(=O)(=O)N(C)C)c1 | > 100 | > 100 | > 100 | > 100 | > 100 | > 100 | > 100 | > 100 | > 100 | > 100 | > 100 |
| CSc1nc2c(c(N(C)C)n1)C=Nn1c(nc3ccccc31)S2 | > 100 | > 100 | > 100 | > 100 | > 100 | > 100 | > 100 | > 100 | > 100 | > 100 | > 100 |
| Oc1ccc(-c2cc(-c3c(O)cc(O)cc3O)on2)cc1 | > 100 | > 100 | > 100 | > 100 | > 100 | > 100 | > 100 | > 100 | > 100 | > 100 | > 100 |
| CCOC(=O)c1cc2cc(Cc3ccc4[nH]c(C(=O)OCC)cc4c3)ccc2[nH]1 | > 100 | 55.5 | > 100 | > 100 | 27.9 | 30.6 | > 100 | 21.4 | 36.3 | > 100 | > 100 |
| c1ccc(COc2ccc(C[P+](c3ccccc3)(c3ccccc3)c3ccccc3)cc2)cc1 | 10.2 | 2.97 | 5.04 | 1.82 | 2.99 | 14.8 | 12.9 | 1.84 | 1.74 | 11 | 4.97 |
